Molecular target: S. aureus GyrB ATPase (Staphylococcus aureus, UniProt P0A0K8)
Assay: biochemical
Conditions: compound at 1 μM; one value per test if tested more than once; read-out: % Inhibition of S. aureus GyrB ATPase
Procedure, shortened: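 IC50 values derive from 10-point titrations of compound (in DMSO). Phosphate formed from 250 μM ATP was quantified by acidic molybdate/malachite green after quenching.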

S. aureus GyrB ATPase, sequence (P0A0K8 whole entry): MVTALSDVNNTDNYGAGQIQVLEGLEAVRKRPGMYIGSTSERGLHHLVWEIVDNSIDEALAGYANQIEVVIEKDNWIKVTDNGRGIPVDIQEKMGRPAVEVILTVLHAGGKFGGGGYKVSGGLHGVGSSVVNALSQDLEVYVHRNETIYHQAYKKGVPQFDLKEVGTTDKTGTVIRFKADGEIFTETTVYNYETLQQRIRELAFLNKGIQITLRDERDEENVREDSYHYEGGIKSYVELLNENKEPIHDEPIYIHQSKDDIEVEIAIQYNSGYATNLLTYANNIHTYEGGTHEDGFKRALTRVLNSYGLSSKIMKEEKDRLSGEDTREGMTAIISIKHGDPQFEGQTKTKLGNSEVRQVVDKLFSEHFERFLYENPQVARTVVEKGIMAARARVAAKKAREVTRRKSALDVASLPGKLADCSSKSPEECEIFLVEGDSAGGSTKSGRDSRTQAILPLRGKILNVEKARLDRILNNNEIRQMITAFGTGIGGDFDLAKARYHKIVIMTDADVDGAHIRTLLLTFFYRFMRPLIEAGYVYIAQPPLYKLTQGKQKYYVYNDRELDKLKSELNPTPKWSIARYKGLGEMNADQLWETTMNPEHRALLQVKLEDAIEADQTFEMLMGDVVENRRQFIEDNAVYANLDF
S. aureus GyrB ATPase, sequence (P0AES4 whole entry, further chain): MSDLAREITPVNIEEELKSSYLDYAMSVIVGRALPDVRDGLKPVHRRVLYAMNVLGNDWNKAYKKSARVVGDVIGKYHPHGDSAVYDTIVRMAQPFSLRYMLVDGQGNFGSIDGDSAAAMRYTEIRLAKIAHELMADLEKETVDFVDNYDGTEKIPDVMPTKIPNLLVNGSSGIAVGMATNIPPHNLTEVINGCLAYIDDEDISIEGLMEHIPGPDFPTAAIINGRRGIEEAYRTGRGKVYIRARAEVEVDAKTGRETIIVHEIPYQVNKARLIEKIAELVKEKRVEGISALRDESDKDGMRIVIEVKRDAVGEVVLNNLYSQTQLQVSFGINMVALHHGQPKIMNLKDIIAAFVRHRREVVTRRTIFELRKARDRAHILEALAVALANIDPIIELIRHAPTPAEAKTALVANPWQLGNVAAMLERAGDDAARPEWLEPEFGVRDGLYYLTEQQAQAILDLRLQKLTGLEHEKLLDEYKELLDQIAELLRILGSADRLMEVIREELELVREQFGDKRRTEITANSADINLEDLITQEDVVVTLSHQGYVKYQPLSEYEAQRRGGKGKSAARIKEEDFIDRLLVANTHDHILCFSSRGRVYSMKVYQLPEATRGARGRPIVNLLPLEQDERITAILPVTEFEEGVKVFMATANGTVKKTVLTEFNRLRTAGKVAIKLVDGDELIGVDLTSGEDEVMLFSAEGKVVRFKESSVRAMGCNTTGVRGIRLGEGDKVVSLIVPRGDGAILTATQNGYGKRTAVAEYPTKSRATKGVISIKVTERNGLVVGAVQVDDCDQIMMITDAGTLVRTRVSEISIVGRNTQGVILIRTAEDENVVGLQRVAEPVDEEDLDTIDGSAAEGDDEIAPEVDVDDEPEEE

Row | Compound | inhibition at 1 µM [%]
1 | CCNC(=O)Nc1cc(-c2nc(-c3ccccc3)cs2)c(-c2ccc3c(c2)c(=O)c(C(=O)O)cn3CC)cn1 [Example 16, 1-ethyl-6-(6-(3-ethylureido)-4-(4-phenylthiazol-2-yl)pyridin-3-yl)-4-oxo-1,4-dihydroquinoline-3-carboxylic acid] | 101
2 | CCNC(=O)Nc1cc(-c2nc(C(F)(F)F)cs2)c(-c2ccc3c(=O)c(C(=O)NCCCO)cn(Cc4ccccc4)c3c2)cn1 [Example 355, 1-Benzyl-7-{6-[(ethylcarbamoyl)amino]-4-[4-(trifluoromethyl)-1,3-thiazol-2-yl]pyridin-3-yl}-N-(3-hydroxypropyl)-4-oxo-1,4-dihydroquinoline-3-carboxamide] | 87
3 | CCNC(=O)Nc1cc(-c2nc(C(F)(F)F)cs2)c(-c2ccc3c(c2)c(=O)c(C(=O)O)cn3C[C@@H]2CCCN(CC)C2)cn1 [Example 251, (R)-1-((1-ethylpiperidin-3-yl)methyl)-6-(6-(3-ethylureido)-4-(4-(trifluoromethyl)thiazol-2-yl)pyridin-3-yl)-4-oxo-1,4-dihydroquinoline-3-carboxylic acid] | 113
4 | CCCNC(=O)Nc1cc(-c2nc(C(F)(F)F)cs2)c(-c2ccc3c(c2)c(=O)c(C(=O)N2CCN(S(=O)(=O)N(C)C)CC2)cn3C2CN(C)C2)cn1 [Example 164, N,N-dimethyl-4-(1-(1-methylazetidin-3-yl)-4-oxo-6-(6-(3-propylureido)-4-(4-(trifluoromethyl)thiazol-2-yl)pyridin-3-yl)-1,4-dihydroquinoline-3-carbonyl)piperazine-1-sulfonamide] | 107
5 | CCNC(=O)Nc1cc(-c2nc(C(F)(F)F)cs2)c(-c2ccc3c(c2)c(=O)c(C(=O)NC2CCOCC2)cn3C(COC)COC)cn1 [Example 128, 1-(1,3-dimethoxypropan-2-yl)-6-(6-(3-ethylureido)-4-(4-(trifluoromethyl)thiazol-2-yl)pyridin-3-yl)-4-oxo-N-(tetrahydro-2H-pyran-4-yl)-1,4-dihydroquinoline-3-carboxamide] | 92
6 | CCNC(=O)Nc1cc(-c2nc(C(F)(F)F)cs2)c(-c2ccc3c(c2)c(=O)c(C(=O)O)cn3C2CCN(C)CC2)cn1 [Example 323, 6-(6-(3-Ethylureido)-4-(4-(trifluoromethyl)thiazol-2-yl)pyridin-3-yl)-1-(1-methyl-piperidin-4-yl)-4-oxo-1,4-dihydro-quinoline-3-carboxylic acid] | 106
7 | CCNC(=O)Nc1cc(-c2nc(C(F)(F)F)cs2)c(-c2ccc3c(c2)c(=O)c(C(=O)O)cn3C(COC)COC)cn1 [Example 4, 1-(1,3-dimethoxypropan-2-yl)-6-(6-(3-ethylureido)-4-(4-(trifluoromethyl)thiazol-2-yl)pyridin-3-yl)-4-oxo-1,4-dihydroquinoline-3-carboxylic acid] | 98
8 | CCNC(=O)Nc1cc(-c2nc(C(F)(F)F)cs2)c(-c2ccc3c(=O)c(C(=O)NCCN4CCN(C)CC4)cn(CC4CC4)c3c2)cn1 [Example 379, 1-(Cyclopropylmethyl)-7-{6-[(ethylcarbamoyl)amino]-4-[4-(trifluoromethyl)-1,3-thiazol-2-yl]pyridin-3-yl}-N-[2-(4-methylpiperazin-1-yl)ethyl]-4-oxo-1,4-dihydroquinoline-3-carboxamide] | 97
9 | CCNC(=O)Nc1cc(-c2nc(C(F)(F)F)cs2)c(-c2ccc3c(c2)c(=O)c(C(=O)NC)cn3[C@H](C(=O)O)C(C)C)cn1 [Example 130, (S)-2-(6-(6-(3-ethylureido)-4-(4-(trifluoromethyl)thiazol-2-yl)pyridin-3-yl)-3-(methylcarbamoyl)-4-oxoquinolin-1(4H)-yl)-3-methylbutanoic acid] | 101
10 | CCNC(=O)Nc1cc(-c2nc(C(F)(F)F)cs2)c(-c2ccc3c(c2)c(=O)c(C(=O)NC2CC2)cn3C2CC2)cn1 [Example 326, N,1-Dicyclopropyl-6-(6-(3-ethylureido)-4-(4-(trifluoromethyl)thiazol-2-yl)pyridin-3-yl)-4-oxo-1,4-dihydroquino-line-3-carboxamide] | 97
11 | CCNC(=O)Nc1cc(-c2nc(C(F)(F)F)cs2)c(-c2ccc3c(c2)c(=O)c(C(=O)O)cn3Cc2cn(C)cn2)cn1 [Example 125, 6-(6-(3-ethylureido)-4-(4-(trifluoromethyl)thiazol-2-yl)pyridin-3-yl)-1-((1-methyl-1H-imidazol-4-yl)methyl)-4-oxo-1,4-dihydroquinoline-3-carboxylic acid] | 93
12 | CCCNC(=O)Nc1cc(-c2nc(C(F)(F)F)cs2)c(-c2ccc3c(c2)c(=O)c(C(=O)NCCO)cn3CCC2CCN(C)CC2)cn1 [Example 213] | 94
13 | CCNC(=O)Nc1cc(-c2nc(C(F)(F)F)cs2)c(-c2ccc3c(c2)c(=O)c(C(=O)O)cn3[C@H](CO)C2CCCCC2)cn1 [Example 78, (S)-1-(1-cyclohexyl-2-hydroxyethyl)-6-(6-(3-ethylureido)-4-(4-(trifluoromethyl)thiazol-2-yl)pyridin-3-yl)-4-oxo-1,4-dihydroquinoline-3-carboxylic acid] | 102
14 | CCNC(=O)Nc1cc(-c2nc(C(F)(F)F)cs2)c(-c2ccc3c(=O)c(C(=O)NCCO)cn(CC(C)C)c3c2)cn1 [Example 342, 7-{6-[(ethylcarbamoyl)amino]-4-[4-(trifluoromethyl)-1,3-thiazol-2-yl]pyridin-3-yl}-N-(2-hydroxyethyl)-1-(2-methylpropyl)-4-oxo-1,4-dihydroquinoline-3-carboxamide] | 99
15 | CCNC(=O)Nc1cc(-c2nc(C(F)(F)F)cs2)c(-c2ccc3c(c2)c(=O)c(C(=O)O)cn3[C@@H]2CCCN(CCO)C2)cn1 [Example 292, (R)-6-(6-(3-ethylureido)-4-(4-(trifluoromethyl)thiazol-2-yl)pyridin-3-yl)-1-(1-(2-hydroxyethyl)piperidin-3-yl)-4-oxo-1,4-dihydroquinoline-3-carboxylic acid] | 102
16 | CCNC(=O)Nc1cc(-c2nc(C(F)(F)F)cs2)c(-c2ccc3c(=O)c(C(=O)NCCN4CCN(C)CC4)cn(CC(C)C)c3c2)cn1 [Example 346, 7-{6-[(ethylcarbamoyl)amino]-4-[4-(trifluoromethyl)-1,3-thiazol-2-yl]pyridin-3-yl}-N-[2-(4-methylpiperazin-1-yl)ethyl]-1-(2-methylpropyl)-4-oxo-1,4-dihydroquinoline-3-carboxamide] | 87
17 | CCCNC(=O)Nc1cc(-c2nc(C(F)(F)F)cs2)c(-c2ccc3c(c2)c(=O)c(C(=O)O)cn3[C@H](CO)C(C)(C)C)cn1 [Example 84, (S)-1-(1-hydroxy-3,3-dimethylbutan-2-yl)-4-oxo-6-(6-(3-propylureido)-4-(4-(trifluoromethyl)thiazol-2-yl)pyridin-3-yl)-1,4-dihydroquinoline-3-carboxylic acid] | 95
18 | CC(C)NC(=O)Nc1cc(-c2nc(C(F)(F)F)cs2)c(-c2ccc3c(c2)c(=O)c(C(=O)O)cn3CCN2CCOCC2)cn1 [Example 195, 6-(6-(3-isopropylureido)-4-(4-(trifluoromethyl)thiazol-2-yl)pyridin-3-yl)-1-(2-morpholinoethyl)-4-oxo-1,4-dihydroquinoline-3-carboxylic acid] | 98
19 | CCCNC(=O)Nc1cc(-c2nc(C(F)(F)F)cs2)c(-c2ccc3c(c2)c(=O)c(C(=O)N2CCNCC2)cn3CCN(C)C)cn1 [Example 161, 1-(5-(1-(2-(dimethylamino)ethyl)-4-oxo-3-(piperazine-1-carbonyl)-1,4-dihydroquinolin-6-yl)-4-(4-(trifluoromethyl)thiazol-2-yl)pyridin-2-yl)-3-propylurea] | 101
20 | CCNC(=O)Nc1cc(-c2nc(C(F)(F)F)cs2)c(-c2ccc3c(=O)c(C(=O)O)cn(CC4CC4)c3c2)cn1 [Example 32, 1-(cyclopropylmethyl)-7-{6-[(ethylcarbamoyl)amino]-4-[4-(trifluoromethyl)-1,3-thiazol-2-yl]pyridin-3-yl}-4-oxo-1,4-dihydroquinoline-3-carboxylic acid] | 98
21 | CCCNC(=O)Nc1cc(-c2nc(C(F)(F)F)cs2)c(-c2ccc3c(c2)c(=O)c(C(=O)O)cn3CCOC)cn1 [Example 191, 1-(2-methoxyethyl)-4-oxo-6-(6-(3-propylureido)-4-(4-(trifluoromethyl)thiazol-2-yl)pyridin-3-yl)-1,4-dihydroquinoline-3-carboxylic acid] | 94
22 | CCNC(=O)Nc1cc(-c2nc(C(F)(F)F)cs2)c(-c2ccc3c(=O)c(C(=O)NCCO)cn(CCO)c3c2)cn1 [Example 364, 7-{6-[(Ethylcarbamoyl)amino]-4-[4-(trifluoromethyl)-1,3-thiazol-2-yl]pyridin-3-yl}-N,1-bis(2-hydroxyethyl)-4-oxo-1,4-dihydroquinoline-3-carboxamide] | 97
23 | CCNC(=O)Nc1cc(-c2nc(C(F)(F)F)cs2)c(-c2ccc3c(=O)c(C(=O)NC)cn(CCO)c3c2)cn1 [Example 363, 7-{6-[(Ethylcarbamoyl)amino]-4-[4-(trifluoromethyl)-1,3-thiazol-2-yl]pyridin-3-yl}-1-(2-hydroxyethyl)-N-methyl-4-oxo-1,4-dihydroquinoline-3-carboxamide] | 95
24 | CCNC(=O)Nc1cc(-c2nc(C(F)(F)F)cs2)c(-c2ccc3c(c2)c(=O)c(C(=O)O)cn3[C@H]2CCCN(CC(C)(C)CN3CCOCC3)C2)cn1 [Example 289, (S)-1-(1-(2,2-dimethyl-3-morpholinopropyl)piperidin-3-yl)-6-(6-(3-ethylureido)-4-(4-(trifluoromethyl)thiazol-2-yl)pyridin-3-yl)-4-oxo-1,4-dihydroquinoline-3-carboxylic acid] | 103
25 | CCCNC(=O)Nc1cc(-c2nc(C(F)(F)F)cs2)c(-c2ccc3c(c2)c(=O)c(C(=O)N2CCNCC2)cn3C2CN(C)C2)cn1 [Example 166, 1-(5-(1-(1-methylazetidin-3-yl)-4-oxo-3-(piperazine-1-carbonyl)-1,4-dihydroquinolin-6-yl)-4-(4-(trifluoromethyl)thiazol-2-yl)pyridin-2-yl)-3-propylurea] | 104

Source: patent US8283361B2 (AstraZeneca AB, priority 2008, dated 2012)
